Here are results for 3 compounds from ChEMBL document CHEMBL3286324, “Serendipitous oxidation product of BIBN4096BS: a potent CGRP receptor antagonist” (Bioorg Med Chem Lett, 2014).

Molecules are shown by their SMILES.

For assay [1], the target named is T1, Calcitonin gene-related peptide type 1 receptor (Homo sapiens, UniProt O60894+Q16602). The assay is described as follows: Antagonist activity at CGRP receptor in human SK-N-MC cells assessed as inhibition of alpha-CGRP-induced c-AMP formation after 15 mins by radioimmunoassay. It counts as cell-based.
The target in assay [2] is T1, Calcitonin gene-related peptide type 1 receptor. The assay can be described thus: Displacement of [125I]-hCGRP from CGRP receptor in human SK-N-MC cell membranes after 2 hrs by scintillation counting analysis. Background: Displacement assays read how much labelled ligand stays bound in the presence of the test substance.

T1 sequence (Q16602 whole entry, one chain of several): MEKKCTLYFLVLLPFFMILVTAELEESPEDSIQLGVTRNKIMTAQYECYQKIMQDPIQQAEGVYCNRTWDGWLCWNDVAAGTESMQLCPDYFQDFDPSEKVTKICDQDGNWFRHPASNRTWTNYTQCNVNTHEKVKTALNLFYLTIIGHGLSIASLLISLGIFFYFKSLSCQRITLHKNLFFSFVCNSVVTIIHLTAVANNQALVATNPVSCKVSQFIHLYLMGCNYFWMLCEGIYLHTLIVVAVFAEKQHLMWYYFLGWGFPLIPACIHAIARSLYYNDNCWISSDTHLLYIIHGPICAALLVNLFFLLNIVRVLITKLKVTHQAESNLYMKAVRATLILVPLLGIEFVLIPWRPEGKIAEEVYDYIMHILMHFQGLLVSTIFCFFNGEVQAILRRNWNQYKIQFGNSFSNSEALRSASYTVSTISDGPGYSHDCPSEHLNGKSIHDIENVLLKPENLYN

Take `NCCCC[C@H](NC(=O)[C@@H](Cc1cc(Br)c(O)c(Br)c1)NC(=O)N1CCC(n2c(=O)[nH]c3ccccc3c2=O)CC1)C(=O)N1CCN(c2ccncc2)CC1`: in assay [1], the EC50 – broadly, the concentration giving half of the maximal effect – was 0.00015 µM.

In the case of `NCCCC[C@H](NC(=O)[C@@H](Cc1cc2ccccc2s1)NC(=O)N1CCC(N2Cc3ccccc3NC2=O)CC1)C(=O)N1CCN(c2ccncc2)CC1`, the IC50 (usually the concentration needed to halve the response being measured) in assay [2] came out at 0.025 µM. For the same compound, the EC50 in assay [1] stood at 0.096 µM.

As to `NCCCC[C@H](NC(=O)[C@@H](Cc1cc2ccccc2s1)NC(=O)N1CCC(n2c(=O)[nH]c3ccccc3c2=O)CC1)C(=O)N1CCN(c2ccncc2)CC1`, the IC50 in assay [2] was 0.0027 µM. For the same compound, the EC50 in assay [1] was determined as 0.1 µM.
